In publication PMC3034313 (Bioorganic & medicinal chemistry, 2010):
Where two headings read alike, the source gives them in different places.

Experiments:
HIV-1 = conditions: cited from earlier work
NTD of capsid = conditions: affinity for the NTD; cited from earlier work
HIV-1 IIIB [1] = assay: Antiviral activity; format: cell-based; conditions: Table 1; HIV-1 IIIB in MT-2 cells; 50% reduction in p24 production; ± SD
HIV-1 IIIB [2] = format: cell-based

Compound: Cc1ccc(NC(=O)NCCSCc2ccc(CN(C)C)o2)cc1Cl [CAP-1]
- HIV-1 inhibition in viral infectivity assays (HIV-1): dose-dependent HIV-1 inhibition
- infectivity of particles produced after treatment (HIV-1): poorly infectious
- inhibition of virus production (HIV-1): virtually no inhibition of virus production
- Kd (NTD of capsid): ~800 µM

Compound: N-Furan-2-ylmethyl-6-methoxy-N-(6-methyl-2-oxo-1,2-dihydro-quinolin-3-ylmethyl)-nicotinamide [Compound 19]
- IC50 (HIV-1 IIIB [1]): > 24.8 µM

Compound: c1cc(CN2CCCNCCNCCCNCC2)ccc1CN1CCCNCCNCCCNCC1 [AMD3100]
- infectivity of virions released in the supernatant (HIV-1 IIIB [2]; producer MT-2 cells treated with 1 μg/mL, positive control): no viral infectivity

Compound: Cc1ccc2[nH]c(=O)c(CN(Cc3ccco3)C(=O)c3ccc(Cl)cc3)cc2c1 [Compound 6]
- percentage of infectivity with respect to the untreated control (HIV-1 IIIB [2]; producer MT-2 cells treated with 2.5 μM, p24-normalized, TCID50): about 60%
- infectivity of virions released in the supernatant (HIV-1 IIIB [2]; producer MT-2 cells treated with 5 μM): no viral infectivity
